Reference: patent US4358444A, “2,4-Dioxacyclohexanone derivative” (Dr. L. Zambeletti S.p.A., priority 1981, dated 1982)
Read-outs that look alike come from different tables or passages of the source.

What was measured:
gastric mucosa = experiment: Gastrolesive activity after oral administration; assay type: in vivo, rats; details: for gastric tolerability / gastrolesive effect (in words): oral
Method: MR 693 and acetylsalycilic acid as the comparison substance were administered by oral route to rats fastened from at least 18 hours.
After six hours from the beginning of the experiment, the rats were sacrificed and the stomachs were opened and examined in order to verify the presence of lesions on the gastric mucosa.

[1] = assay type: in vivo; details: for distribution / route of excretion/elimination: metabolite
[2] = tested on: carrageenin induced edema; experiment: Carrageenin induced edema test (antinflammatory activity); assay type: in vivo, rats; details: for reduction of the edema / antiinflammatory action compared with acetylsalicylic acid (in words): oral, equimolecular dosages
From the text: The antinflammatory properties of MR 693 have been investigated by means of the carrageenin induced edema test in rats, by administering the compound of the invention by oral route and using acetylsalycilic acid as the comparison substance, at equimolecular dosages.

[3] = tested on: yeast induced hypertermia; experiment: Yeast induced hypertermia test (antipyretic activity); assay type: in vivo, rat
From the text: This activity has been investigated by means of the yeast induced hypertermia test in the rat, taking again acetylsalycilic acid, administered at equimolecular dosages, as the comparison substance.

[4] = tested on: citric acid aerosol induced cough; experiment: Citric acid aerosol induced cough test (antitussive activity); details: for antitussive activity compared with codeine (in words): 500 mg/kg oral vs codeine 25 mg/kg oral, general statement in b2
dogs [5] = experiment: Subacute toxicity in dogs, oral, four weeks; assay type: in vivo; details: four consecutive weeks
From the text: (§1) Subacute toxicity studies have been carried out on rats and dogs, by administering MR 693 by oral route for four consecutive weeks.
(§2) The parameters which have been taken into consideration are as follows:
(§3) glycosuria, proteinuria, albuminuria and haematuria
(§4) weight of the principal organs

Acute toxicity in rats = details: in vivo, rat, read-out: DL50 (the source's name)
From the text: (§5) Acute toxicity tests have been carried out in mice rats, by administering the compound of the invention by oral and intraperitoneal route.

rats [6] = experiment: Theratogenesis studies in rats; assay type: in vivo; details: oral, all along the pregnancy
From the text: (§6) Theratogenesis studies have been carried out on rats and rabbits, which have been treated by oral route with MR 693 all along the duration of the pregnancy. […]
(§7) number of pregnant females […]
(§8) initial body weight/end body weight (of the mothers) […]
(§9) average number of lived foetuses total number of dead foetuses total number of re-absorptions average weight of lived foetuses

rabbits = experiment: Theratogenesis studies in rabbits; assay type: in vivo; details: oral, all along the pregnancy
From the text: as §6, §7, §8, §9

rats [7] = experiment: Subacute toxicity in rats, oral, four weeks; assay type: in vivo; details: four consecutive weeks
From the text: as §1, §2, §3, §4

esterase = experiment: In vitro metabolism (enzymatic hydrolysis); assay type: in vitro ADME
From the text: Studies have been performed both in vitro and in vivo.

Acute toxicity in mice = details: in vivo, po; mouse, os; read-out: DL50 (the source's name)
From the text: as §5

[8] = Toxicity, overall statement (acute, subacute and chronic); assay type: in vivo
From the text: as §5, §1
(§10) Chronic toxicity studies have been carried out on rats, administered by oral route with MR 693 for 24 consecutive weeks, and dogs, administered by oral and rectal route with the compound of the invention again for 24 weeks.

dogs [9] = experiment: Chronic toxicity in dogs, oral and rectal, 24 weeks; assay type: in vivo
From the text: as §10, §2
(§11) biochemical examination of the blood glycosuria, proteinuria, haematuria, albuminuria
(§12) weight and hystological control of the principal organs;

rats [10] = experiment: Chronic toxicity in rats, oral, 24 weeks; assay type: in vivo
From the text: as §10, §2, §11, §12

[11] = 250 mg/kg os (equimolecular dosage)
[12] = listed as 3-(2-methoxy-phenoxy)-3-methyl-benzo-2,4-dioxacyclohexanone
[13] = 400 mg/kg os (equimolecular dosage)

CC(=O)Oc1ccccc1C(=O)O [Acetylsalycilic acid, acetylsalicylic acid, reference compound]
Average diameter of the lesions (gastric mucosa; 250 mg/kg os, six hours (equimolecular dosage)): 3.7 ± 0.8 mm
concentration observed in the lungs compared with plasma and liver ([1]; in vivo): higher than those observed in the plasma and the liver
distribution ([1]; after administration of MR 693): enter the systemic circulation
% Inhibition of the edema [2, 11]: 33%
% Inhibition (yeast induced hypertermia) [3, 11]: 103%

COc1ccc2c3c1O[C@H]1[C@@H](O)C=C[C@H]4[C@@H](C2)N(C)CC[C@@]341 [Codeine, codeine, reference compound]
% Inhibition of cough-strokes ([4]; 12.5 mg/kg i.p.): 93.7%
% Inhibition of cough-strokes ([4]; 25 mg/kg os): 76.7%
inhibition at 12.5 mg/kg ([4]; Cavia porcellus, ip, read-out: % Inhibition of cough-strokes, 12.5 mg/kg i.p.): 93%

COc1ccccc1OC1(C)OC(=O)c2ccccc2O1 (stereo not drawn) [MR 693, 3-(2-methoxy-phenoxy)-3-methyl-benzo-2,4-dioxacyclohexanone]
Average diameter of the lesions (gastric mucosa; 100 mg/kg os, six hours): 0 mm
Average diameter of the lesions (gastric mucosa; 400 mg/kg os, six hours (equimolecular dosage)): 0 mm
gastric tolerability / gastrolesive effect (in words) (gastric mucosa): perfectly tolerated at gastric level
gastric tolerability / gastrolesive effect (in words) (gastric mucosa; [12]): complete absence of any gastrolesive effect
alterations or malformations (subacute toxicity) (dogs [5]): in no case alterations or malformations ascribable to the treatment
reduction over the controls of the number of cough-strokes (in words) ([4]; 500 mg/kg oral): marked reduction
antitussive activity compared with codeine (in words) [4]: better than that displayed, under the same conditions, by an oral dosage of 25 mg/kg of codeine
antitussive activity compared with codeine (in words) [4, 12]: higher than that of codeine
% Inhibition of cough-strokes ([4]; 500 mg/kg os): 84.3%
inhibition at 100 mg/kg ([4]; Cavia porcellus, ip, read-out: % Inhibition of cough-strokes): 100%
LD50 (Acute toxicity in rats; ip, i.p.): 1750 mg/kg
LD50 (Acute toxicity in rats; po, os): > 3000 mg/kg
theratogenesis: alterations (rats [6]): no alteration
theratogenesis: number of litters alive (rats [6]): no variation of the number of litters alive
theratogenesis: somatic or skeletal malformations (rats [6]): neither somatic not skeletal malformations have been observed
theratogenesis: alterations (rabbits): no alteration
theratogenesis: number of litters alive (rabbits): no variation of the number of litters alive
theratogenesis: somatic or skeletal malformations (rabbits): neither somatic not skeletal malformations have been observed
alterations or malformations (subacute toxicity) (rats [7]): in no case alterations or malformations ascribable to the treatment
enzymatic hydrolysis (metabolites) (esterase): enzymatically hydrolyzed to acetylsalycilic acid and guaiacol
organs displaying the highest esterase activity (esterase): the lungs and the kidneys
pulmonary tropism ([1]; in vivo): relative better pulmonary tropism
absorption ([1]; in vivo, po): absorbed as such for the major part
metabolites in vivo ([1]; in vivo, po): hydrolyzed to acetylsalycilic acid, salycilic acid and guaiacol
LD50 (Acute toxicity in mice): > 3000 mg/kg
toxicity (in words) [8, 12]: almost negligible toxicity (both acute, subacute and chronic)
toxicity (in words) ([8]; listed as mr 693): very little toxic compound
% Inhibition of the edema [2, 13]: 30%
reduction of the edema / antiinflammatory action compared with acetylsalicylic acid (in words) [2]: marked reduction of the edema
reduction of the edema / antiinflammatory action compared with acetylsalicylic acid (in words) [2, 12]: practically is the same as that possessed by acetylsalicylic acid
alteration of the mucosae of the gastro-intestinal tract (dogs [9]): did not show any alteration of the mucosae
alterations or anatomo-pathological states (chronic toxicity) (dogs [9]): no alterations or particularly significant anatomo-pathological states
% Inhibition (yeast induced hypertermia) [3, 13]: 86%
antipyretic activity compared with acetylsalicylic acid (in words) ([3]; oral, equimolecular dosages, listed as 3-(2-methoxy-phenoxy)-3-methyl-benzo-2,4-dioxacyclohexanone): only slightly lower than that displayed, again, by acetylsalicylic acid
alterations or anatomo-pathological states (chronic toxicity) (rats [10]; 24 consecutive weeks): no alterations or particularly significant anatomo-pathological states
alteration of the mucosae of the gastro-intestinal tract (rats [10]; 24 weeks): did not show any alteration of the mucosae

COc1ccccc1O [guaiacol]
pulmonary tropism ([1]; assumed from lung concentrations and pulmonary tropism of guaiacol): marked pulmonary tropism
absorption ([1]; in vivo, after oral administration of MR 693): mainly absorbed by pre-systemic route
distribution ([1]; after administration of MR 693): enters the lungs through the lymphatic vessels
route of excretion/elimination ([1]; after administration of MR 693): eliminated by respiratory route

O=C(O)c1ccccc1O [salycilic acid]
concentration observed in the lungs compared with plasma and liver ([1]; after administration of MR 693): higher than those observed in the plasma and the liver
distribution ([1]; after administration of MR 693): enter the systemic circulation
route of excretion/elimination ([1]; after administration of MR 693): excreted by urinary route
